From article PMC9203742 (Nature Communications, 2022) come the findings set out here.

Several values for one entry are separate records, joined by “and”; a condition that tells them apart may be missing. Identical values can stand only once.

In one experiment the target is T1, mGlu1(N264H) mutant (Rattus norvegicus, UniProt P23385, N264H).
T1 construct: expressed in transfected cells; host or cells: HEK293
Briefly: Fura-2 Ca2+ imaging in HEK293 cells expressing mGlu1(N264H). The format is cell-based. Conditions: 10 µM LY367385, 1 µM FITM, 10 µM YM254890 or 1 µM U73122.

Experiment [1] addresses T2, cell-surface mGlu1 in cerebellar slices of mGlu1^+/+ mice (Mus musculus, UniProt P97772).
T2 construct: from tissue; host or cells: acute cerebellar slices of mGlu1+/+ (C57BL/6J) mice
The experiment in a line: Confocal live imaging of cell-surface mGlu1 with FITM-Cy3 in acute cerebellar slices, mGlu1^+/+. Type of experiment: binding. On the procedure:
(§1) Sagittal cerebellar slices were cut with a microslicer (Linear slicer Pro7; DOSAKA EM) in cutting solution buffer and then incubated in ACSF gassed with 5% CO2 and 95% O2 at room temperature.
(§2) The cerebellar slices prepared from mGlu1^+/+ or mGlu1^CBC/CBC mice, were incubated with 10 nM FITM-Cy3 and 10 µg/mL Hoechst33342 for 30 min at room temperature in a humidified atmosphere of 5% CO2 and 95% O2. As a negative control, the cerebellar slices were incubated with 10 nM FITM-Cy3, 10 µg/mL Hoechst33342, and 500 nM FITM. Then, the slices were subjected to confocal live imaging using a confocal microscope (LSM900, Carl Zeiss). The fluorescence intensity of Cy3 at the molecular layer were quantified by ZEN blue software (Carl Zeiss).

The target of experiment [2] is T3, cell-surface mGlu1 in cerebellar slices of mGlu1^CBC/CBC mice (Mus musculus, UniProt P97772, N264H).
T3 construct: from tissue; host or cells: acute cerebellar slices of homozygous mGlu1(N264H) knock-in (mGlu1CBC/CBC) mice
Briefly: Confocal live imaging of cell-surface mGlu1 with FITM-Cy3 in acute cerebellar slices, mGlu1^CBC/CBC. Type of experiment: binding. On the procedure: as §1, §2

For a further experiment, the system named is primary cortical neurons. Briefly: Fura-2 Ca2+ imaging (abnormal Ca2+ response) in cultured cortical neurons. Conditions: co-treated 30 µM LY367385, 1 µM FITM or 10 µM U73122.
The test system of experiment [3] is HEK293 cells, control vector. The experiment in a line: Inositol-1-phosphate (IP1) accumulation assay, HEK293 cells transfected with control vector. The format is cell-based. Conditions: 100 µM Glu; Vec; listed as Glu.
The test system of experiment [4] is HEK293 cells, vector control. Briefly: Fura-2 Ca2+ imaging in HEK293 cells transfected with control vector (Vec). Conditions: single-cell values #1-#20, listed as Glu. The format is cell-based.
For experiment [5], the system named is mGlu1 construct not given. The experiment in a line: Fura-2 Ca2+ imaging in HEK293 cells, source data Suppl Fig1, left group (c0-c8); construct not given. Conditions: single-cell values, cells #15-#20; left group of third block; listed as Glu. Type of experiment: cell-based, rat. Further details: unit not given here. From the text: (§3) Supplement 41467_2022_30828_MOESM6_ESM.zip/Ojima et al_source data_Suppl Fig.xlsx, sheet "Suppl Fig1" | column: Glu; NiCl2; CuCl2; ZnCl2; CdCl2; Na2PdCl2; Pd(bpy)

Experiment [6] deals with mGlu1 construct not given. The experiment in a line: Fura-2 Ca2+ imaging in HEK293 cells, source data Suppl Fig1, middle group (c9-c17); construct not given. The format is cell-based, rat. Further details: unit not given here. Conditions: single-cell values, cells #15-#20; middle group of third block; listed as Glu.
Excerpt: as §3

In experiment [7] the test system is mGlu1 construct not given. The experiment in a line: Fura-2 Ca2+ imaging in HEK293 cells, source data Suppl Fig1, right group (c18-c26); construct not given. Type of experiment: cell-based, rat. Further details: unit not given here. Conditions: single-cell values, cells #15-#20; right group of third block; listed as Glu.
Excerpt: as §3

Setting [8] is: 10 nM FITM-Cy3 with excess (500 nM) FITM.
[9] abbreviates: mGlu1+/+, relative to Ave of mGlu1+/+ FITM (-) = 1.
Where [10] appears, read: mGlu1CBC/CBC, relative to Ave of mGlu1+/+ FITM (-) = 1.

T3 sequence (P97772 19-1199 N264H limits assumed): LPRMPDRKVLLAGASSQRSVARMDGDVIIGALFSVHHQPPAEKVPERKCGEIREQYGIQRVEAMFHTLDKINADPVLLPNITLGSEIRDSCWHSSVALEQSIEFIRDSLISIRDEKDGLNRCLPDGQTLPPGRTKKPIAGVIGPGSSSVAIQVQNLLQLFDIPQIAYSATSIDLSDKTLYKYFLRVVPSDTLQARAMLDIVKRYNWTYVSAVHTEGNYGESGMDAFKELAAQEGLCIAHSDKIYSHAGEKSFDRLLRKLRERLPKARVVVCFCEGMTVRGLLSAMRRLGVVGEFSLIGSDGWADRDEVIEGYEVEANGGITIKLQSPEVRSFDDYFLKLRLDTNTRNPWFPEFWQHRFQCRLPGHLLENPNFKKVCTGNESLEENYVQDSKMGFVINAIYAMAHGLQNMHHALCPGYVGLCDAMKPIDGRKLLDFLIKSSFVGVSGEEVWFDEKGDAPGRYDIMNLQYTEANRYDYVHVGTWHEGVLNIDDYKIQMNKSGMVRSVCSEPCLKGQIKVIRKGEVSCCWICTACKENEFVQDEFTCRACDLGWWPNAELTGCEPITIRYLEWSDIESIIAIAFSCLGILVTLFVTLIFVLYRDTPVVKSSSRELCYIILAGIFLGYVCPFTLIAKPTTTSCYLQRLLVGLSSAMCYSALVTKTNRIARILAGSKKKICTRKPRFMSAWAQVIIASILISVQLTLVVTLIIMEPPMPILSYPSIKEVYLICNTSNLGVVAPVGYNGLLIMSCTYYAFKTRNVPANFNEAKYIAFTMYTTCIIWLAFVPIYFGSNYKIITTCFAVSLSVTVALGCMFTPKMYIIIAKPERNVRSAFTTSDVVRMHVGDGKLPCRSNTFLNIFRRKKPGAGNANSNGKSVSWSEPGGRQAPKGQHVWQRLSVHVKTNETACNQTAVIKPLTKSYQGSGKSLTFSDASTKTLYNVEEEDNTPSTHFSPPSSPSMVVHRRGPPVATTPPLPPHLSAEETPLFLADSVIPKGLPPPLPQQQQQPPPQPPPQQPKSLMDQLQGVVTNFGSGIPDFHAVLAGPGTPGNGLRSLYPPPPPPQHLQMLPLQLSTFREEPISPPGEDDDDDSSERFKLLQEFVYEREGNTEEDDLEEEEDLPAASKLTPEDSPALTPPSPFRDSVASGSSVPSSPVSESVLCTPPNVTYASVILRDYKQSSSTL
T2 sequence (P97772 19-1199 limits assumed): as the sequence (P97772 19-1199 N264H limits assumed) above, with H246N counted along it
T1 sequence (P23385 19-1199 N264H): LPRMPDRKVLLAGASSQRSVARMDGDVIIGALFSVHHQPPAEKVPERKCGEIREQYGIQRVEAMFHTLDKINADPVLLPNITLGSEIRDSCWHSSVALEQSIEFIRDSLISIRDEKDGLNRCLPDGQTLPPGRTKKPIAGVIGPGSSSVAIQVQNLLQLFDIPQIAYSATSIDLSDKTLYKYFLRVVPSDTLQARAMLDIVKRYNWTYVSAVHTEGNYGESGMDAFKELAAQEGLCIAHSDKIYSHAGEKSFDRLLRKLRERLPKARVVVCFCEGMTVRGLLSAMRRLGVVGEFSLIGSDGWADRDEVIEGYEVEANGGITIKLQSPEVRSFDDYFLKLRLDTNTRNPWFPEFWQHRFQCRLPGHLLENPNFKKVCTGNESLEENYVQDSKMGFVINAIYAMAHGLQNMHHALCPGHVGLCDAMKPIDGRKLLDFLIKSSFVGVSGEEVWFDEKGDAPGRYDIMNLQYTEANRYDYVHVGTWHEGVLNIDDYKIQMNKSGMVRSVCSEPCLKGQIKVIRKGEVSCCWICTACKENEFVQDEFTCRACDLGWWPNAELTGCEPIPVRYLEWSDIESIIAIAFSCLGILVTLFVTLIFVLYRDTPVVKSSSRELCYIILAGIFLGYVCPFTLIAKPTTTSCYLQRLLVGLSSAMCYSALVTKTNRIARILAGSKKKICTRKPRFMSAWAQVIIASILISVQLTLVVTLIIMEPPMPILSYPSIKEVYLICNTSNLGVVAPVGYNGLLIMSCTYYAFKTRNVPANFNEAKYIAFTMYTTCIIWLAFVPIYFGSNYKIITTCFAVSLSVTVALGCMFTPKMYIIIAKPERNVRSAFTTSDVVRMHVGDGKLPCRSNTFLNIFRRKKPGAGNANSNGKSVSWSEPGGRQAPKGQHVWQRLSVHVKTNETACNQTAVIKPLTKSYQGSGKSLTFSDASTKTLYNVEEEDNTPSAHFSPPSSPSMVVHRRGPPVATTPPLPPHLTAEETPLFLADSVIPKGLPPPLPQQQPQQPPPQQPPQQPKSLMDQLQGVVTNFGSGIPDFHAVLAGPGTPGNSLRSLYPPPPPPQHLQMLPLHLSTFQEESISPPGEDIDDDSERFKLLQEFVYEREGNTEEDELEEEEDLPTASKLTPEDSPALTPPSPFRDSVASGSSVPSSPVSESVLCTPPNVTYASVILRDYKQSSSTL

Turning to `CC(C)Nc1cc(-c2csc(N(C)C(=O)c3ccc(F)cc3)n2)ncn1` [FITM], the “Effect of pre-treated inhibitor on 10 µM Pd(bpy)-induced Ca2+ responses” value at mGlu1(N264H) mutant is reported as “inhibited”. The “Competition of FITM-Cy3 fluorescence in the molecular layer” value in experiment [1] (setting [8]) and in [2] (setting [8]) was “disappearance of fluorescence” each time. The “FITM-Cy3 signal with FITM (+), Ave (Fig.5d)” value was determined as 0.2072 in experiment [1] (setting [9]) and 0.1786 in [2] (setting [10]). Also, the “FITM-Cy3 signal with FITM (+), individual values #1-#5 (Fig.5d)” value in experiment [1] (setting [9]) is 0.08371 and 0.2036 and 0.1822 and 0.2639 and 0.3024; in experiment [2] (setting [10]), 0.1218 and 0.08484 and 0.2076 and 0.2159 and 0.2628. Moreover, the “Effect of inhibitor on 30 µM Pd(bpy)-induced [Ca2+]i elevation” value in the experiment on primary cortical neurons is “suppressed by neither”.

For `N[C@@H](CCC(=O)O)C(=O)O` [glutamate, reference compound], in experiment [3], the “IP1 accumulation, single experiments” value is 1.025 and 1.123 and 0.98. Besides, in experiment [4], the “Ca2+ response of individual cells (source data Suppl Fig1), Vec” value was 0.01056 and 0.06409 and 0.01964 and 0.006185 and 0.01272 and 0.02269 and 0.02795 and 0.001992 and 0.03471 and 0.04057 and 0.0119 and 0.01116 and 0.01651 and 0.008954 and 0.06266 and 0.02138 and 0.004577 and 0.01188 and 0.01429 and 0.0107. Further, the “Ca2+ response of individual cells (source data, sheet Suppl Fig1)” value in experiment [5] is 0.1813 and 0.3548 and 0.1848 and 0.1996 and 0.1287 and 0.1577; in experiment [6], 0.1431 and 0.7212 and 0.03709 and 0.1609 and 0.01695 and 0.7758; in [7], 0.5202 and 0.5869 and 0.3843 and 0.3042 and 0.505 and 0.02158.
